# Laboratory results from patent publication US11285226B2, “Aryl ethene derivative and pharmaceutical composition containing same as active ingredient” (priority 2016, dated 2022).
# Legend:
# [1] = Weight change of mice during administration; details: all groups
# CAL-62 cells = test: 125I uptake assay in anaplastic thyroid cancer cells; format: cell-based
# [2] = test system: ERRγ protein in CAL62 cells; test: Western blot, ERRγ protein; format: cell-based
# [3] = test system: CAL-62/effluc mouse tumor model; test: Bio-distribution study, 125I uptake in CAL-62/effluc tumor; format: in vivo
# Experimental: Nude mice (Balb/c nu/nu, female, 6 weeks old) were used, and all animals were normally raised in DMRC center animal laboratory of Kyungbuk National University Hospital in Chilgok. 5×10^6 CAL-62/effluc cells were subcutaneously injected into the left femoral region of the nude mouse to form a tumor. The tumor was extracted, divided into small pieces (20 mg or more), and then intradermally injected into the nude mouse to form a tumor.
# After 4 hours of administration, all organs including a parent tumor were extracted, and each organ was weighed. Thereafter, each organ was transferred to a 5 mL test tube, and radioactivity in the organ was measured using a gamma counter.
# CYP1A2 = CYP1A2 (Homo sapiens (Human), UniProt P05177); test: Cytochrome P450 activity inhibition, CYP1A2; format: in vitro ADME; details: 10 μM, human liver microsomes
# Chain of CYP1A2 (P05177 whole entry): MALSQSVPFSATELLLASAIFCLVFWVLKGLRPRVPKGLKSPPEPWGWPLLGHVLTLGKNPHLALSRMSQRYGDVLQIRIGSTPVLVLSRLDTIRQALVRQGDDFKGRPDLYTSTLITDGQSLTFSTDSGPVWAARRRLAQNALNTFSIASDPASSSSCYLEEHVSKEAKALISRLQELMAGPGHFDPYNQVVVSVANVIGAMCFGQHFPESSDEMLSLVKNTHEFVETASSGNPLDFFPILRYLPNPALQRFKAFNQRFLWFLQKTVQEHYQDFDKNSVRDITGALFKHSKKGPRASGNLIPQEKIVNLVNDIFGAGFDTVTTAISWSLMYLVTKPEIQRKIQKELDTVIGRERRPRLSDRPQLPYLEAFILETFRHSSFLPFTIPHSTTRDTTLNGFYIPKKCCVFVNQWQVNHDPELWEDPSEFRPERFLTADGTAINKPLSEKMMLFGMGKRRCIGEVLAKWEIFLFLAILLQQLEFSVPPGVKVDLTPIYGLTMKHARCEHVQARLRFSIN
# Text: (§1) 1) Cytochrome P450 (CYP450) Activity Inhibition Evaluation
# NIS mRNA in CAL62 cells = test: Quantitative RT-PCR, NIS mRNA; format: cell-based
# Experimental: (§2) Total RNA was separated using Trizol (Invitrogen, Carlsbad, Calif.). Total RNA (2 ug) was reverse-transcribed into cDNA with RevertAid First Strand cDNA Synthesis Kit (Thermo Scientific, Pittsburgh, Pa.). Genes were amplified with a ViiA 7 Real-Time PCR System instrument (Applied Biosystems) using the primer of each target gene and YBR Green PCR master mix (Applied Biosystems, Foster City, Calif.), using a cDNA template. The primer sequence of each target gene is as follows: ERRγ (forward, 5′-CAG ACG CCA GTG GGA GCT A-3′; reverse, 5′-TGGCGAGTCAAGTCCGTTCT-3′), NIS (forward, 5′-TCTAACCGATGCTCACCTCTTCTG-3′; reverse, 5′-AGATGATGGCACCTCCTTGAACC-3′), and acidic ribosomal protein 36B4 (forward, 5′-CCA CGC TGC TGA ACA TGC T-3′; reverse, 5′-TCGAACACCTGCTGGATGAC-3′). Each target gene was normalized using a 36B4 gene.
# CAL62 cells = test: Clonogenic assay with 131I; format: cell-based; details: alone
# Experimental: The cells were plated in a 6-well plate, and allowed to stand for 24 hours. […] The cells were washed with cold bHBSS, and allowed to stand in a normalized culture medium for a time corresponding to six doublings. Finally, the cells were fixed in a 4% paraformaldehyde (PFA) solution and stained with 0.05% crystal violet.
# ERRγ mRNA in CAL62 cells = test: Quantitative RT-PCR, ERRγ mRNA; format: cell-based
# Experimental: as §2
# [4] = test system: NIS protein in CAL62 cells; test: Western blot, total and membrane-localized NIS protein; format: cell-based, human
# [5] = format: in vitro ADME, mouse; details: 1 μM, 30 minutes, 37° C.
# Experimental: 2) Microsomal Stability Evaluation
# (§3) Four liver microsomes (Human, Dog, Rat, Mouse 0.5 mg/ml) with a 0.1 M phosphate buffer solution (pH 7.4), and the arylethene derivative of the present invention were added to a concentration of 1 μM, culturing was performed at 37° C. for 5 minutes in advance, a NADPH regeneration system solution was added thereto, and culturing was performed at 37° C. for 30 minutes. Thereafter, in order to complete the reaction, an acetonitrile solution containing an internal standard material (chlorpropamide) was added thereto, centrifugation (14,000 rpm, 4° C.) was performed for 5 minutes, and a supernatant was injected into a LC-MS/MS system to analyze the substrate drug, thereby evaluating metabolism stability to the arylethene derivative of the present invention.
# ERR alpha LBD = ERR alpha LBD (Homo sapiens (Human), UniProt P11474); details: read-out: Binding Assay, IC50 ERRα
# Chain of ERR alpha LBD (P11474 193-421, species assumed): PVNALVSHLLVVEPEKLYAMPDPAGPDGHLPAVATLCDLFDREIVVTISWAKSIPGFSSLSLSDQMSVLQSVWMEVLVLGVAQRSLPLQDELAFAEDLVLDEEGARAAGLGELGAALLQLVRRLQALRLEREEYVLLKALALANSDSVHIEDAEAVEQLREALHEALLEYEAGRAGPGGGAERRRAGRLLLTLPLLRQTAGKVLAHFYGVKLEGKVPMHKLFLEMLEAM
# Experimental: (§4) The arylethene derivative of the present invention was sequentially added to a 384 well plate from a concentration of 10 μM to a final concentration of two-fold dilution. […] After all reagents were added, a reaction was carried out with gentle shaking at 20° C. for 1 hour, and after the reaction, a binding activity was measured by a TR-FRET method.
# [6] = format: in vitro ADME, human; details: 1 μM, 30 minutes, 37° C.
# Experimental: 2) Microsomal Stability Evaluation
# as §3
# CYP2D6 = CYP2D6 (Homo sapiens (Human), UniProt P10635); test: Cytochrome P450 activity inhibition, CYP2D6; format: in vitro ADME; details: 10 μM, human liver microsomes
# Chain of CYP2D6 (P10635 whole entry): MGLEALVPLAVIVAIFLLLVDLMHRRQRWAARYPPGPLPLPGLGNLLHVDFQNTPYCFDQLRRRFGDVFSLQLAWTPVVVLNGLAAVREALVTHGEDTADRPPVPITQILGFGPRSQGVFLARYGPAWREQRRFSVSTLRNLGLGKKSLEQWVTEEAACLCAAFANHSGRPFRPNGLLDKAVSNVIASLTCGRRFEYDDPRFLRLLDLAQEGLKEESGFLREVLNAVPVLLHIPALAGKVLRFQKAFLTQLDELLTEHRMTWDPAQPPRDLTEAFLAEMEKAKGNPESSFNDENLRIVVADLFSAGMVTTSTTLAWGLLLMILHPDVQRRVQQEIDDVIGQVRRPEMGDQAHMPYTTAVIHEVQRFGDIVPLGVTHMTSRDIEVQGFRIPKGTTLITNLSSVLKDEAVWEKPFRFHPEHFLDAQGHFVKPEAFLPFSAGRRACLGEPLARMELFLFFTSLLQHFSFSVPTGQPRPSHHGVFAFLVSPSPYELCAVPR
# Text: as §1
# ERRβ = ERRβ (Homo sapiens, UniProt O95718); test: ERRβ binding assay (selectivity test), TR-FRET
# Experimental: as §4
# ERRγ = format: cell-based
# Experimental: AD293 was cultured in a 24-well plate for 24 hours, using a DMEM High glucose culture medium (Hyclone, USA) to which 0.5% FBS was added at a concentration of 9×10^4/well. The culture medium was replaced with a DMEM High glucose culture medium to which 10% FBS was added, treatment was performed with a mixture of a TransIT-LT1 transfection reagent (Minis, USA) and pCMX-Gal4-ERRγ, pFR-luciferase reporter plasmid, pCMV-β-gal, and culturing was performed for 24 hours. Thereafter, a luciferase activity assay and a β-gal assay were performed, respectively, with a lysate obtained after treatment with the arylethene derivative of the present invention for 24 hours. All results were derived from three or more independent repetitive experiments.
# [7] = format: in vitro ADME, dog; details: 1 μM, 30 minutes, 37° C.
# Experimental: 2) Microsomal Stability Evaluation
# as §3
# [8] = format: in vitro ADME, rat; details: 1 μM, 30 minutes, 37° C.
# Experimental: 2) Microsomal Stability Evaluation
# as §3
# CYP2C19 = CYP2C19 (Homo sapiens (Human), UniProt P33261); test: Cytochrome P450 activity inhibition, CYP2C19; format: in vitro ADME; details: 10 μM, human liver microsomes
# Chain of CYP2C19 (P33261 whole entry): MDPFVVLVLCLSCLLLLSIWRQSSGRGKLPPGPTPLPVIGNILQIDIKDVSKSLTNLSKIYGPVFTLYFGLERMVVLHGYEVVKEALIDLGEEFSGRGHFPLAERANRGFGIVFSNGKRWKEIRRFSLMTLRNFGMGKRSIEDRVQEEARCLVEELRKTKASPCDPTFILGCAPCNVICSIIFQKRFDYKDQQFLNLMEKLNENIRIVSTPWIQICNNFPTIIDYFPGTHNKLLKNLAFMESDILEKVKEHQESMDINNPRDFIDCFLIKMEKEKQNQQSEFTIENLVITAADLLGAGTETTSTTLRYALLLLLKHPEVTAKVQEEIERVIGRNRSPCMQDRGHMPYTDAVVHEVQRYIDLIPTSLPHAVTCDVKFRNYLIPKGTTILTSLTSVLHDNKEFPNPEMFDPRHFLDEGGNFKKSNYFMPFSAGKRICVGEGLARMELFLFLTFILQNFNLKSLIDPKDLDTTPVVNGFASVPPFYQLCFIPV
# Text: as §1
# CYP3A4 = CYP3A4 (Homo sapiens (Human), UniProt P08684); test: Cytochrome P450 activity inhibition, CYP3A4; format: in vitro ADME; details: 10 μM, human liver microsomes
# Chain of CYP3A4 (P08684 whole entry): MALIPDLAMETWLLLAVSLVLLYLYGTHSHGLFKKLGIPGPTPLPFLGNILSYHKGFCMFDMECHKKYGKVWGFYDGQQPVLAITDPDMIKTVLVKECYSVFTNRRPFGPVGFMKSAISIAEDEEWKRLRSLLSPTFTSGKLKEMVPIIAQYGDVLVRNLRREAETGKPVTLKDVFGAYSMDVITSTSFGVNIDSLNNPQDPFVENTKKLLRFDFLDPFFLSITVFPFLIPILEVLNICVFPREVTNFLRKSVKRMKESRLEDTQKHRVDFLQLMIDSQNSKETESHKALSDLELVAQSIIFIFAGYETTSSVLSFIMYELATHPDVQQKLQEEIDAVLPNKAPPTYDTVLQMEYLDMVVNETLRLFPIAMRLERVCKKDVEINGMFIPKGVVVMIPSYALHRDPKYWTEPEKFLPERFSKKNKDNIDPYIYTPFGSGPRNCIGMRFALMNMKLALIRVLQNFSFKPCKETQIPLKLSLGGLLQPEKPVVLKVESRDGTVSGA
# Experimental: Thereafter, in order to complete the reaction, an acetonitrile solution containing an internal standard material (Terfenadine) was added thereto, centrifugation (14,000 rpm, 4° C.) was performed for 5 minutes, and a supernatant was injected into a LC-MS/MS system to analyze the metabolites of the substrate drug, thereby evaluating drug metabolism enzyme inhibition by the arylethene derivative of the present invention.
# CYP2C9 = CYP2C9 (Homo sapiens (Human), UniProt P11712); test: Cytochrome P450 activity inhibition, CYP2C9; format: in vitro ADME; details: 10 μM, human liver microsomes
# Chain of CYP2C9 (P11712 whole entry): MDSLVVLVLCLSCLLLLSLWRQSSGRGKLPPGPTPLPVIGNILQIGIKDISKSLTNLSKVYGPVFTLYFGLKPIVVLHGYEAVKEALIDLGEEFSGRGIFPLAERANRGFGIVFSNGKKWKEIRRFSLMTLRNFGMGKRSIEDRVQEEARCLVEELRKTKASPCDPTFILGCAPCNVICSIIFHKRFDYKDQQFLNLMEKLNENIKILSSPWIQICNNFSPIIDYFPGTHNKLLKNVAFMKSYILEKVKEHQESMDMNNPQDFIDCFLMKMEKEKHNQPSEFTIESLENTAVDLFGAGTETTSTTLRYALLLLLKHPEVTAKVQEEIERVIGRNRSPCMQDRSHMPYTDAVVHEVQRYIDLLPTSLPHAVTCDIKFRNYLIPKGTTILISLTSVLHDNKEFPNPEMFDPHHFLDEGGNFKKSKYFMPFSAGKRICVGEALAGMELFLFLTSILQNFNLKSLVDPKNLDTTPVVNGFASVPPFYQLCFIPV
# Text: as §1
# [9] = molecular target: ER alpha ligand-binding domain (LBD) (Homo sapiens (Human), UniProt P03372); details: beta-estradiol 4 nM as agonist; read-out: Binding Assay, IC50 ERα
# Chain of ER alpha ligand-binding domain (LBD) (P03372 whole entry, looked up, the tested form may be a part): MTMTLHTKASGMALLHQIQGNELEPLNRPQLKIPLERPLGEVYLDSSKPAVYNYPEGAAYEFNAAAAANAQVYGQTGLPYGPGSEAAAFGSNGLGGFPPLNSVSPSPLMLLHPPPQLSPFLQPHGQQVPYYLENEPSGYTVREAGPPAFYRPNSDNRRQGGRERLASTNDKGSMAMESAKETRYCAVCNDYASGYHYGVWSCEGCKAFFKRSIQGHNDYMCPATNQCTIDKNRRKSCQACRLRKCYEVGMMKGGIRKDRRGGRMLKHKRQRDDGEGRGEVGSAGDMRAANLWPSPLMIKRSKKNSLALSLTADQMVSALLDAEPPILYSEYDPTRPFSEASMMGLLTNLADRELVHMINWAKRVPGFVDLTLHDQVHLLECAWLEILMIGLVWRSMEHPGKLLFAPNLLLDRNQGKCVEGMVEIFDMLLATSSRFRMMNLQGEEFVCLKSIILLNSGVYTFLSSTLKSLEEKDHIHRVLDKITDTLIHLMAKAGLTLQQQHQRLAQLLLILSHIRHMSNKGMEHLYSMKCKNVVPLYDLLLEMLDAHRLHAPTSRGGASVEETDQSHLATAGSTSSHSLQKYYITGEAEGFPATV
# Experimental: as §4
# [10] = molecular target: ERR gamma ligand-binding domain (LBD) (Homo sapiens (Human), UniProt P62508); test: ERRγ binding assay (inverse agonist assay), TR-FRET
# Chain of ERR gamma ligand-binding domain (LBD) (P62508 233-457): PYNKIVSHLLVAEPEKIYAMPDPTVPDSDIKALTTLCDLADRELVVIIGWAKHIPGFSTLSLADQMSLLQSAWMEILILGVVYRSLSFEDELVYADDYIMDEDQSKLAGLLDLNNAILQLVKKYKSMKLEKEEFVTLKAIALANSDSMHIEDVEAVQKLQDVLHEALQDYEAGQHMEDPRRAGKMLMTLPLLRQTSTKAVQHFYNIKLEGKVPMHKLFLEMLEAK
# Experimental: 1) ERRγ Binding Assay (Inverse Agonist Assay)
# as §4
# [11] = format: in vitro ADME; details: PBS pH 7.4, 25° C., 5 hours
# Experimental: 3) Parallel Artificial Membrane Permeability Assay (PAMPA) Evaluation
# PAMPA is a method which has been developed for testing cell membrane permeability of a material in a test tube, and has been performed using a lipid tri-layer PVDF membrane available from Corning Gentest (NY, US), the used reagents were all purchased from Sigma (MO, US). First, a test material is diluted in PBS (pH 7.4) to a final concentration of 10 mM, 300 mL of the solution is added to the bottom well of a 96-transwell equipped with a PVDF membrane, and 200 mL of PBS is added to the upper well. Then, a plate is reacted at 25° C. for 5 hours, 20 mL of the solution in each well is transferred to a new container, and 80 mL of acetonitrile containing an internal standard material (4 mM chloropropamide) is added thereto. A concentration of the material in the solution is analyzed using LC-MS/MS (ThermoFisher Scientific, MO, US), and the transmittance of the material is calculated according to the equation reported in the reference document. • Reference document: A novel design of artificial membrane for improving the PAMPA model.
Structure (SMILES),CYP inhibition (% of control) 1A2 (CYP1A2),MS (Microsomal Stability) (%) mouse [5] [%],IC50 (ERR alpha LBD) [µM],MS (Microsomal Stability) (%) human [6] [%],CYP inhibition (% of control) 2D6 (CYP2D6),MS (Microsomal Stability) (%) dog [7] [%],MS (Microsomal Stability) (%) rat [8] [%],CYP inhibition (% of control) 2C19 (CYP2C19),CYP inhibition (% of control) 3A4 (CYP3A4),CYP inhibition (% of control) 2C9 (CYP2C9),IC50 [9] [µM],further results
CC(C)N1CCN(c2ccc(C(=C(CCCO)c3ccccc3)c3ccc(O)cc3)cc2)CC1 [Compound 18a],88 % of control,,,,,,,,,,,"weight change in the mice [1]: abrupt weight change in the mice was not shown; concentration of maximum increase of iodine uptake (CAL-62 cells; CAL62 cells): 12 µM; radioactive iodine uptake in CAL62 cells (CAL-62 cells; for each concentration and each time): significant increase; ERRγ protein expression, decrease vs vehicle treated group [2]: about 2.8 times; radioactive uptake in CAL62 tumor, increase vs vehicle group ([3]; 100 mpk orally daily for 6 days): 4.4 times; radioactive uptake in CAL62 tumor, increase vs vehicle group ([3]; 200 mpk orally daily for 6 days): 16.2 times; NIS mRNA expression, increase vs vehicle-treated group (NIS mRNA in CAL62 cells): about 2 times; cytotoxic effect in clone formation assay (CAL62 cells): minimal cytotoxic effect; ERRγ mRNA expression, decrease vs vehicle treated group (ERRγ mRNA in CAL62 cells): about 16 times; increase in membrane fully glycosylated NIS protein [4]: 8.1 times; increase in membrane partially glycosylated NIS protein [4]: 6.4 times; total NIS protein expression, change vs vehicle treated group ([4]; text says significantly increased, then decreased): about 1.9 times"
OCCC/C(=C(\c1ccc(O)cc1)c1ccc(C2CCNCC2)cc1)c1ccccc1 [Compound 20j],93.6 % of control,25.3,> 10,76.8,89.3 % of control,68.3,84.5,62 % of control,66.2 % of control,77.1 % of control,0.992,"IC50 (ERRβ): 4.93 µM; Functional Assay at 10 μM (% of control), Cpds (ERRγ; 10 μM, AD293, 24 hours): 1.41 % of control; Functional Assay, Cpds/Ref 5182 (ERRγ; activity relative to reference compound GSK5182): 1.38"
OCCC/C(=C(\c1ccc(O)cc1)c1ccc(C2CCN(C3CCCCC3)CC2)cc1)c1ccccc1 [Compound 22p],88.1 % of control,40.4,9.7,72.3,79.6 % of control,77.7,75.3,61.5 % of control,90.6 % of control,81.8 % of control,2.12,IC50 [10]: 0.099 µM; Permeability Pampa [11]: 0.2 10^−6 cm/s
